Measurements from ChEMBL document CHEMBL1134431, “Chemoenzymatic synthesis of functionalized cyclohexylglycines and alpha-methylcyclohexylglycines via Kazmaier-Claisen rearrangement” (Bioorg Med Chem Lett, 2001).
pIC50: −log10 of the molar value.

Legend:
Stromelysin-1 = Stromelysin-1 (Homo sapiens, UniProt P08254); assay: Inhibition of Stromelysin (Matrix metalloprotease-3)
[1] = biological target: 72 kDa type IV collagenase (Homo sapiens, UniProt P08253); assay: Inhibition of gelatinase A (Matrix metalloprotease-2)
Collagenase 3 = Collagenase 3 (Homo sapiens, UniProt P45452); assay: Inhibition of Collagenase 3 (Matrix metalloprotease-13)

Sequence of 72 kDa type IV collagenase (P08253 whole entry): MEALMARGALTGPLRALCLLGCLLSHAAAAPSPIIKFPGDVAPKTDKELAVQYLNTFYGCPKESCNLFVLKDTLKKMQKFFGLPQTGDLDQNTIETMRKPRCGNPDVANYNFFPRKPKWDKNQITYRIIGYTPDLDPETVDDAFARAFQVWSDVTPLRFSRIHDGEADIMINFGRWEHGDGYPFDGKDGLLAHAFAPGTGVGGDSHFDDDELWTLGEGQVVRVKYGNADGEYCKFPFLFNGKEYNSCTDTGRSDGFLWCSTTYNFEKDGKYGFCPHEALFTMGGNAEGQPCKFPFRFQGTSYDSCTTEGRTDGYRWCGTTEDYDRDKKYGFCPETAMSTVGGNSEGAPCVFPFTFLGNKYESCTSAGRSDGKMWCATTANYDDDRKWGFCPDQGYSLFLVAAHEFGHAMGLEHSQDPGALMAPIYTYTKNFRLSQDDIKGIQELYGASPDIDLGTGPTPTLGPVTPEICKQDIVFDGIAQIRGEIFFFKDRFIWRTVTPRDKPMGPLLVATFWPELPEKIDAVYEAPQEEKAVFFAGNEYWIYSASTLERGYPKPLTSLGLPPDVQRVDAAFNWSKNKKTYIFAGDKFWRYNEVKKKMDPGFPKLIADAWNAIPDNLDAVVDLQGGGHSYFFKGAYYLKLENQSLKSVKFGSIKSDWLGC
Sequence of Stromelysin-1 (P08254 whole entry): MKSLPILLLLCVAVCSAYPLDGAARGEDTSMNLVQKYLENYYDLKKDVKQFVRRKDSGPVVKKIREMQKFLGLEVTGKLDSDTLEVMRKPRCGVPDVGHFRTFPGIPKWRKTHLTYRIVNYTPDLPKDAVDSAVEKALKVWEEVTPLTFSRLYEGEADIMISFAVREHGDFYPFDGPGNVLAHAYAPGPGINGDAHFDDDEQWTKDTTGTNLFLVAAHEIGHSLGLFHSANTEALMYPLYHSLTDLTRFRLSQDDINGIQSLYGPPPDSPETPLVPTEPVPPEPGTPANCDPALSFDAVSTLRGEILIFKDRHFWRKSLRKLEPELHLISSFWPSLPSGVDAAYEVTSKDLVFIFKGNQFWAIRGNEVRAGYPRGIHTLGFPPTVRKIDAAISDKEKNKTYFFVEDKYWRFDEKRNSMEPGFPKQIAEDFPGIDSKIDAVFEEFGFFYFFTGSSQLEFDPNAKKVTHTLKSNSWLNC

pIC50 (Stromelysin-1)	pIC50 [1]	pIC50 (Collagenase 3)	Compound
5.60	7.70	6.75	COc1ccc(-c2ccc(S(=O)(=O)N[C@@H](C(=O)O)C3C=C[C@@H](O)CC3)cc2)cc1 (some centres not stated)
5.91	7.92	7.52	COc1ccc(-c2ccc(S(=O)(=O)N[C@@H](C(=O)O)C3CCC(O)CC3)cc2)cc1 (some centres not stated)
5.21	6.60	6.47	COc1ccc(-c2ccc(S(=O)(=O)N[C@@](C)(C(=O)O)C3CCC(O)CC3)cc2)cc1 (some centres not stated)

Compound	pIC50 (Stromelysin-1)	pIC50 [1]	pIC50 (Collagenase 3)
COc1ccc(-c2ccc(S(=O)(=O)N[C@@H](C(=O)O)C3CC[C@H](O)C=C3Br)cc2)cc1 (some centres not stated)	5.42	7.42	6.88
